Results on one compound are retold here after patent US11730716B2, “Compounds for treating ophthalmic diseases and disorders” (priority 2014, dated 2023).

Usually Cmax stands for the maximum level reached in the sampled fluid or tissue. The half-life is the time needed for the level to fall by half in the phase considered. The low end stands for fast loss, the high end for slow loss.

Series [1] deals with experimental autoimmune uveitis (EAU). Briefly: Prevention of relapses in the experimental autoimmune uveitis (EAU) rat model, R14-induced, intravitreal injection. The format is in vivo, Lewis rats. The source says: Experimental autoimmune uveitis (EAU) in Lewis rats is a model for human endogenous uveitis. The disease is mediated by CD4+ T lymphocytes of the T helper 1 (Th1) and Th17 subtypes. In Lewis rats the disease was induced by immunizing animals with retinal antigens such as interphotoreceptor retiniod-binding protein (IRBP) and adjuvant. IRBP is also considered to be an autoantigen in humans. Peptide R14, a 23mer from IRBP, is the most pathogenic epitope for Lewis rats. Immunization with these peptides emulsified in Complete Freund's Adjuvant (CFA) leads to severe inflammation of the anterior chamber of the eyes and destruction of the retinal architecture. R14 causes a relapsing-remitting disease with an early onset (about day 7), the peak of EAU between day 10 to 14 and the remission around day 17/18. 20 rats were immunized with 15 μg IRBP-peptide R14 emulsified in complete Freund's adjuvant. After primary disease, PP-001 was injected intravitreally at day 18 (6 μl=3 μg PP-001) in both eyes of 10 animals. One eye in this group dropped out because of penetrating the eye during injection. 10 animals received 6 μl PBS intravitreally in both eyes as control group. Clinical grade of inflammation in the anterior chamber was determined daily.

For series [2], the system named is retinal and choroidal tissue. Briefly: Tolerability of intravitreal injections of PP-001 solutions in Dutch Belted rabbits. Type of series: in vivo. Conditions: intravitreal 0.0625 or 0.125 mg/eye.
The subject of series [3] is intraocular tissues. Briefly: Local tolerability of intravitreal injections of PP-001 in rat eyes. Type of series: in vivo. Conditions: high dose PP-001 (150 μg/ml, 10 μl intravitreal); 8 days. How it is done: For this purpose, three different doses of PP-001, dissolved in phosphate-buffered saline (PBS) and a vehicle control with PBS only were injected into the posterior chamber (=vitreous) of rat eyes. The eyes (anterior chamber) were examined daily with an ophthalmoscope and after 8 days the experiment was terminated, and the eyes processed for histology (cryosections).
8 Lewis rats (age 7-8 weeks) were anesthetized using 0.5 mg/kg medetomidine s.c. Additional topical anesthesia with 0.4% oxybuprocaine eye drops was applied. After intraocular injection sedation was antagonized with an s.c. injection of 2.5 mg/kg atipamezol.
10 μl of solution were injected into the vitreous of both eyes with a 30 G needle, controlled under an operation microscope. The perpendicular injection is penetrating the […] and should neither touch the lens or the retina. After injection an antibiotic ointment was applied to the eyes to avoid infections.
PP-001 was dissolved in PBS and applied intravitreally in 3 different concentrations.
Group 1, Rat 1-1 and 1-2: 10 μl PBS (vehicle control)

Series [4] has as its system vascular endothelial growth factor (VEGF). Briefly: Cellular protein expression of VEGF in antigen-stimulated rat lymph node/T cell cultures (Luminex multiplex cytokine assay). Type of series: cell-based. Conditions: 3 μM, 10 μM and 30 μM; supernatants after 24 h. The procedure:
Rats were immunized with 25 μg of the respective peptide as previously described.
After 10 to 12 days popliteal, inguinal and para-aortal lymph nodes (LN) were collected, single cell suspensions were stimulated with the respective antigen peptides at a final concentration of 10 μg/ml RPMI1640, supplemented with Penicillin/Streptomycin, L-Glutamine, essential and non-essential amino acids (all 4 from PAA, Colebee, Germany), 12.5 μM […] and 1% normal rat serum. After 3 days the cells were expanded in culture medium supplemented with 10% spleen conditioned medium (from Concanavalin A-stimulated rat spleen cells) and 5% fetal calf serum (FCS) for 4 days.
For restimulation 0.5-2×10^6 T cells/ml were incubated with irradiated (8 Gy) rat thymocytes (3-10 fold more than T cells) as antigen-presenting cells (APC) and 10 μg/ml of the specific antigen peptide in culture medium as described for the first stimulation. After two days of culturing cells were expanded with conditioned medium for 5 days as described above, followed by another cycle of restimulation and expansion. […]

Series [5] can be described thus: in vivo. Set-up: species or system Dutch Belted rabbits. Conditions: male, Dutch Belted, rabbit, topical or ocular; for half-life: t1/2. How it is done:
36 male Dutch Belted rabbits were divided in […]: 16 animals each in group 1 and 2 received 0.0625 mg and 0.125 mg PP-001 per eye, 4 animals were administered with dose vehicle (sucrose solution) only. At designated time points animals were sacrificed and vitreous humor, retina, and choroid were collected from both eyes of each animal and weighed. Samples were analysed for PP-001 concentration using a specific HPLC/MS/MS analytical method and PK parameters were calculated with Phoenix WinNonlin software (v6.3) using a non-compartmental model with sparse sampling.
Animals were anesthetized with an intramuscular injection of ketamine hydrochloride (30 mg/kg) and xylazine (5 mg/kg) for the injection procedure.
The study director performed the IVT injection in both eyes (OU). Topical ocular anesthetics were used per ASI SOPs.
The eyes and surrounding tissues were cleaned and disinfected with 2% betadine ophthalmic solution and then rinsed with basic salt solution (BSS). Using a 30 gauge needle with length no greater than ⅝ inch, injections were made 5 to 7 mm from the limbus (where the cornea meets the sclera). Once inserted, the PP-001 or vehicle control was injected at a volume of 25 μL per eye. The needle was then removed and the eye rinsed with BSS.
Vitreous humor and choroid/sclera/retina were collected from both eyes of each animal at the designated time point and analyzed for PP-001 concentration using a specific HPLC/MS/MS analytical method.

Series [6] deals with dry eye syndrome. Type of series: in vivo. The procedure: The aim of the study was to evaluate the tolerability and therapeutic potential of PP-001 in a murine model of dry eye syndrome.
Dry eye symptoms were induced in forty (40) pigmented C57BL/6N mice by exposing them to a controlled environment (relative humidity<25%, air-flow 15 L/min, temperature 20-22° C.) and systemic scopolamine administration (0.5 mg/72 h) for 10 days.
Mice were randomized into 4 groups of 10 animals and treated with PP-001, Restasis®, placebo and the forth group remained untreated.
Tear production and corneal defects were evaluated on days 3, 7 and 10 using phenol red thread and fluorescence staining in each of the four groups.
Preparation of Eye Drop Solutions:
Placebo eye drops: A solution containing 20 mg/ml polyvinylpyrrolidone, 10 mg/ml glycerol 85%, 2 mg/ml hydroxypropyl methylcellulose in sodium phosphate buffer adjusted to pH 7.
PP-001 eye drops: A solution containing 1.6 mg/ml PP-001, 20 mg/ml polyvinylpyrrolidone, 10 mg/ml glycerol 85%, 2 mg/ml hydroxypropyl methylcellulose in sodium phosphate buffer adjusted to pH 7.
Positive control: Restasis® (cyclosporine ophthalmic emulsion from Allergan)

In series [7] the test system is choroidal neovascularization. Briefly: Inhibition of choroidal neovascularization in PDSAg-induced EAU rat model. Type of series: in vivo, Lewis rats. The source says:
Choroidal neovascularization is a known feature of posterior uveitis and a major cause of retinal destruction and loss of vision. To monitor the effect of PP-001 on neovascularization, the EAU model in Lewis rats was used. In Lewis rats the disease was induced by immunizing animals with retinal antigen PDSAg, a 14mer derived from S—Ag. Immunization with that peptide emulsified in Complete Freund's Adjuvant (CFA) leads to severe inflammation of the anterior chamber of the eyes and destruction of the retinal architecture and choroidal neovascularization Induction with PDSAg causes a monophasic disease with first clinical signs of inflammation observed between day 8 and 12 after immunization and reaching the peak of disease between day 14 and 18. Inflammation in the anterior chamber subsides until day 21 to 22 post immunization. Long term effects such as choroidal neovascularization are seen at the later stages of the disease after the inflammation of the anterior chamber has subsided. 18 Lewis rats were immunized with PDSAg. Starting at the beginning of the disease (day 9 post immunization) 6 animals were treated with PP-001 and 6 animals were treated with vehicle control. […] Post day 25 experiment was stopped and 12 eyes for each treatment group were histological analyzed for the presence of choroidal neovascularizations.

For series [8], the system named is Ad5 McEwen. Briefly: Experimental adenoviral ocular infection (Ad5/NZW rabbit ocular model), eye drops, plaque assay on A549 monolayers. The format is in vivo. How it is done: 25 New Zealand White rabbits were inoculated in both eyes following general anesthesia with ketamine and xylazine, topical anesthesia with proparacaine, and corneal scarification (12 cross-hatched strokes of a #25 needle) with 50 μl of 3.0×10^7 PFU/ml (1.5×10^6 PFU/eye) of Ad5 McEwen (Stock 1/17/08, 4.08×10^8 PFU/ml). Eyes were closed and gently rubbed for 5 seconds to ensure contact of the virus on all ocular surfaces.
At least 3 h after inoculation, all eyes were cultured for virus. Following topical anesthesia with proparacaine, a single cotton-tipped swab was placed into the lower fornix of each eye, rolled over the cornea into the upper fornix to recover adenovirus from the tear film and corneal and conjunctival surfaces. The swabs from each eye were placed individually into tubes containing 1 ml of outgrowth media and were frozen at −70° C. pending plaque assay.
On day 1, the rabbits were divided into 5 treatment groups outlined in the chart below. The five treatment groups consisted of a vehicle control, 0.16% PP-001 8 times, 6 times, and 4 times daily for 10 days, and the positive antiviral control 0.5% cidofovir (CDV).
Begin of treatment on day 1. Drops were administered with at least a 45 min interval between drops. All eyes from all groups were cultured for virus on days 1, 3, 4, 5, 7, 9, 11, and 14 PI at least 1 h after the final doses of the treatments described above. At various times during the course of the experiment, Ad5 titers were determined on A549 cell monolayers using standard plaque assays. The ocular cultures to be titered were thawed, diluted (1:10) and inoculated onto A549 monolayers. The virus was adsorbed for 3 h. Following adsorption, 1 ml of media plus 0.5% methylcellulose was added to each well, and the plates were incubated at 37° C. in a 5% […] atmosphere. After 7 days incubation, the cells were stained with 0.5% gentian violet, and the number of plaques were counted under a dissecting microscope (25×). The viral titers were then calculated, and expressed as plaque-forming units per milliliter (PFU/ml). […]

Turning to `O=C(Nc1c(F)c(F)c(-c2cccc(OC(F)(F)F)c2)c(F)c1F)c1ccsc1C(=O)O` [PP-001, 3-(2,3,5,6-tetrafluoro-3′-trifluoromethoxy-biphenyl-4-ylcarbamoyl)-thiophene-2-carboxylic acid], in series [1] (single intravitreal injection at day 18, 3 μg per eye, compared to placebo group), the “time to the appearance of the first relapse” value is “delayed”. Also, in series [1] (single intravitreal injection at day 18, 6 μl = 3 μg per eye, vs PBS control), the “reduction of the number of relapses” value is greater than 50%. Further, the “effect on the retinal and choroidal tissue” value in series [2] is recorded as “did not have any significant effect”. Further, in series [3], the eyes completely normal was 2 of 4. Besides, the “protein expression of VEGF” value in series [4] was “reduced”. For the same compound, the Cmax in series [5] (0.0625 mg) amounted to 33.2 µg/g; in series [5] (0.0625 mg, Cmax), 25.7 µg/g; in series [5] (0.125 mg), 56.9 µg/g; in series [5] (0.125 mg, Cmax), 61.5 µg/g. Also, the results for the t1/2 in series [5] (0.0625 mg) and in series [5] (0.125 mg) were 14.5 h and 13.1 h, respectively. The half-life in series [5] (0.0625 mg) was 14.3 h; in series [5] (0.125 mg), 21.4 h. In addition, the “corneal staining compared to placebo treatment” value in series [6] (Day 10) is recorded as “reduced”. Besides, the “corneal staining in comparison to the induced untreated group” value in series [6] (Day 10, multiple instillations) is “reduced significantly”. Further, the corneal surface damage result in series [6] (multiple topical administrations of PP-001 1.6 mg/mL) is given as “reduced corneal surface damage comparable to Restasis®”. For the same compound, the “reduction of number of choroidal neovascularizations (factor)” value in series [7] (treatment started at beginning of uveitis (day 9 post immunization), vs vehicle, p<0.005) was 3. Also, in series [7] (treatment started at day 15 (peak of disease), vehicle mean 6, p<0.05), the “mean number of choroidal neovascularizations” value worked out at 3. The “dose response of antiviral efficacy” value in series [8] (0.16% PP-001 8 times and 6 times per day vs 4 times per day, 10 days) was “more efficacious than 0.16% PP-001 instilled 4 times per day for 10 days”. In addition, the “safety as topical antiviral agent” value in series [8] (0.16% PP-001 eye drops, 4-8 times daily for 10 days) is reported as “safe”. Further, the “antiviral efficacy (topical)” value in series [8] (0.16% PP-001 eye drops, Ad5 titers PFU/ml) is recorded as “efficacious”.
